Assay results published in patent US5650415A, “Quinoline compounds” (Sugen, Inc., priority 1995, dated 1997).

Key:
[1] = molecular target: T1, IGF-1R (Homo sapiens, UniProt P08069); assay: Cellular IGF-1 Receptor ELISA; type: cell-based; conditions: 3T3/IGF-1R cells
T1 construct: expressed in transfected cells; host or cells: 3T3/IGF-1R cells (mouse 3T3 host)
Protocol: Cellular IGF-1 Receptor ELISA (Version I)
(1). The cell line used in this assay is 3T3/IGF-1R, a cell line which overexpresses IGF-1 Receptor.
(2). 3T3/IGF-1R is grown in an incubator with 5% CO2 at 37° C. The growth media is DMEM+10% FBS (heat inactivated)+2mM L-Glutamine.
(3). For ELISA plate coating, the anti-IGF-1R antibody named 17-69 is used. Antibodies are purified by the Enzymology Lab, SUGEN, Inc.
All the following steps are conducted at room temperature unless it is specifically indicated. All ELISA plate washings are performed by rinsing the plate with tap water three times, followed by one TBST rinse. Pat plate dry with paper towels.
(1). The cells, grown in tissue culture dish (10 cm, Corning 25020-100) to 80-90% confluence, are harvested with Trypsin-EDTA (0.25%, 0.5 ml/D-100, GIBCO).
(2). Resuspend the cells in fresh DMEM+10% FBS+2mM L-Glutamine, and transfer to 96-well tissue culture plate (Corning, 25806-96) at 20,000 cells/well (100 ul/well). Incubate for 1 day then replace medium to serum-free medium (90/ul) and incubate in 5% CO2 and 37° C. overnight.
(1). Coat the ELISA plate (Corning 25805-96) with Anti-IGF-1R Antibody at 0.5 ug/well in 100 ul PBS at least 2 hours.
(2). Remove the coating solution, and replace with 100 ul Blocking Buffer, and shake for 30 minutes. Remove the blocking buffer and wash the plate just before adding lysate.
(1). The drugs are tested in serum-free condition.
(2). Dilute drug stock (in 100% DMSO) 1:10 with DMEM in 96-well poly-propylene plate, and transfer 10 ul/well of this solution to the cells to achieve final drug dilution 1:100, and final DMSO concentration of 1.0%. Incubate the cells in 5% CO2 at 37° C. for 2 hours.
(3). Prepare fresh cell lysis buffer (HNTG HNTG 2 ml EDTA 0.1 ml Na3VO4 0.1 ml Na4P2O7 0.1 ml H20 7.3 ml HNTG* 10 ml.
(4). After drug incubation for two hours, transfer 10 ul/well of 200 nM IGF-1 Ligand in PBS to the cells (Final Conc=20 nM), and incubate at 5% CO2 at 37° C. for 10 minutes.
(5). Remove media and add 100ul/well HNTG* and shake for 10 minutes. Look at cells under microscope to see if they are adequately lysed.
(6). Use a 12-channel pipette to scrape the cells from the plate, and homogenize the lysate by repeat aspiration and dispense. Transfer all the lysate to the antibody coated ELISA plate [V.2.(2)], and shake for 1 hour.
(7). Remove the lysate, wash the plate, transfer anti-pTyr (1:3,000 with TBST) 100 ul/well, and shake for 30 minutes.
(7). Remove anti-pTyr, wash the plate, transfer detection antibody (1:3,000 with TBST) 100 ul/well, and shake for 30 minutes.
(8). Remove detection antibody, wash the plate, and transfer fresh ABTS/H2O2 (1.2 ul H2O2 to 10 ml ABTS) 100 ul/well to the plate to start color development.
(9). Measure OD (410 nm) in Dynatec MR5000, which is connected to Ingres.

[2] = system: HER2; assay: HER2 whole cell kinase ELISA (second HER2 column of Table 1); type: cell-based; conditions: cell line not given
Source text: The following examples illustrates the ability of the exemplary compounds to inhibit receptor tyrosine kinases, such as HER2 and/or EGFR. The following target cells were used for cellular kinase assays: NIH3T3 clone C7 (Honegger et al., supra) engineered to over-express human EGF receptor; NIH3T3 cells engineered to over-express a chimeric receptor containing the EGFR extracellular domain and the HER2 intracellular kinase domain; the human mammary carcinoma line BT474 (ATCC HTB2) expressing HER2; and the human glioblastoma line U1242 that expresses PDGFR-beta. Growth assays were carried out using human mammary epithelial SKBR3 (ATCC HTB30) cells (SKBR3 cells over-express HER2), SKOV3 (AT(D(D HTB77) human ovarian cancer cell line (SKOV3 cells also over-express HER2), A431 cells (A431 cells over-express EGFR) MCF7 human breast carcinoma cells, MCF7 cells overexpressing the HER2 kinase (MCF7-HER2), NIH3T3 cells, and NIH3T3 cells overexpressing the HER2 kinase (3T3-HER2. EGFR-HER2 Chimeric Recetor HER2 kinase activity (EGFR-3T3) in whole cells was measured as described below: HER2-ELISA HER2-BT474 assays measuring whole cell HER2 activity was carried out as described below: 1. The cell line used in this assay is BT-474 (ATCC HBT20), a human breast tumor cell line which expresses high levels of HER2 kinase. 2. BT-474 is grown in an incubator with 5% CO2 at 37° C. The growth media is RPMI+10% FBS+GMS-G (Gibco supplement)+Glutamine. 3. A monoclonal anti-HER2 antibody is used in ELISA. (a) Grow BT474 cells in tissue culture dishes (10 cm, Corning 25020-100) to 80-90% confluence and collect using Trypsin-EDTA (0.25%, GIBCO). (b) Resuspend the cells in fresh medium and transfer to 96-well tissue culture plates (Corning, 25806-96) at about 25,000-50,000 cells/well (100 μl/well). Incubate the cells in 5% CO2 at 37° C. overnight. (a) Coat the ELISA plate (Corning 25805-96) with anti HER2 antibody at 0.5 μg/well in 150 μl PBS overnight at 4.sunburst. C., and seal with parafilm. The antibody coated plates can be used up to 2 weeks, when stored at 4° C. (b) On the day of use, remove the coating solution, replace with 200 μl of Blocking Buffer, shake the plate, and then remove the blocking buffer and wash the plate just before adding lysate. (a) TBST the drugs in serum-free condition. Before adding drugs, the old media (b) Dilute drug stock (in 100% DMSO) 1:10 with RPMI, and transfer 10 μl/well of this solution to the cells to achieve a final drug DMSO concentration at 1%. Incubate the cells in 5% CO2 at 37° C. (d) After drug preincubation for two hours remove all the solution from the plate, transfer HNTG* 100 μl/well to the cells, and shake for 10 minutes. (e) Use a 12-channel pipette to scrape the cells from the plate, and homogenize the lysate by repeat aspiration and dispensing. Transfer all the lysate to the ELISA plate and shake for 1 hour. (f) Remove the lysate, wash the plate, add anti-pTyr (1:3,000 with TBST) 100 μl/well, and shake for 30 minutes. (g) Remove anti-pTyr, wash the plate, add goat anti-rabbit IgG conjugated antibody (1:5,000 with TBST) 100 μl/well, and shake for 30 minutes. (h) Remove anti-rabbit IgG antibody, wash the plate, and add fresh ABTS/H2 O2 (1.2 μl H2 O2 to 10 ml ABTS) 100 l/we1l to the plate to start color development, which usually takes 20 minutes. (i) Measure OD 410 nm, Dynatec MR5000.

T1 sequence (P08069 31-1367): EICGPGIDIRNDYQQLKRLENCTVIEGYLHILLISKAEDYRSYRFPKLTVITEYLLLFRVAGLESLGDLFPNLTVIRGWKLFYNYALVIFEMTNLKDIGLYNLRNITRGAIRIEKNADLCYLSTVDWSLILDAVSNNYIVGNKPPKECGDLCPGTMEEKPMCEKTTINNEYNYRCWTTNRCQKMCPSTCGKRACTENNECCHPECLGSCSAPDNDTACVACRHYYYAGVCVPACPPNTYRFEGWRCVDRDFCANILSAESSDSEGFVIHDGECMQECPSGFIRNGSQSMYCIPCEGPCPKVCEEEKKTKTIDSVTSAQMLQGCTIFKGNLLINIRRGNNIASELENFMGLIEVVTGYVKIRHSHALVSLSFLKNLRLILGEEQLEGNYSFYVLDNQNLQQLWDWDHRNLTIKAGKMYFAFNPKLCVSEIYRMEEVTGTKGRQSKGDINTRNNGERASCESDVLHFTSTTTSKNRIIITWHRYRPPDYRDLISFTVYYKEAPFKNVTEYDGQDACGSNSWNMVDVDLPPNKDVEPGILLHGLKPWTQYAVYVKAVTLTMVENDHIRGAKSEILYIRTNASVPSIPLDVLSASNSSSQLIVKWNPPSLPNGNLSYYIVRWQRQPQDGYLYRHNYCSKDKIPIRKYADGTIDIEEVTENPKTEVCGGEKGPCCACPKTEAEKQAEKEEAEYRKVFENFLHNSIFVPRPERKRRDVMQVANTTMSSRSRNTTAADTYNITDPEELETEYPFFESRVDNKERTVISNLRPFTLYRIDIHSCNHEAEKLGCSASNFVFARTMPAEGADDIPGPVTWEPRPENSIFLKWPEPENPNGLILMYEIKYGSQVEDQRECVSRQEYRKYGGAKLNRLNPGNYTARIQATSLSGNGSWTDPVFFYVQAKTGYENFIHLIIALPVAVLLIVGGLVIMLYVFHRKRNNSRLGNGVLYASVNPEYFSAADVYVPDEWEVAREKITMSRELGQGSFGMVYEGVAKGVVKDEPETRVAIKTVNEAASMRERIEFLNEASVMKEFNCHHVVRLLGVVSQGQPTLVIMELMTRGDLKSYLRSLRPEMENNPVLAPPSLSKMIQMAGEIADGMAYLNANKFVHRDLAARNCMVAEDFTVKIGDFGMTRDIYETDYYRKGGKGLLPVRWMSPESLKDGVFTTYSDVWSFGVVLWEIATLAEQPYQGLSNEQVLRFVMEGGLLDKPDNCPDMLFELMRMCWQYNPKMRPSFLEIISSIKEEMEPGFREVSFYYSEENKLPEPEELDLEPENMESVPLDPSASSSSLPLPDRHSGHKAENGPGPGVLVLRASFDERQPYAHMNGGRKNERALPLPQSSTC

| SMILES | IC50 [1] [µM] | IC50 [2] [µM] |
| --- | --- | --- |
| CCOC(=O)c1cnc2ccc(C(F)(F)F)cc2c1Nc1ccccc1C(F)(F)F [Compound A720, 3-Ethoxycarbonyl-4-(2-trifluoromethylphenylamino)-6-trifluoromethylquinoline] | > 100 | > 100 |
| CCOC(=O)c1cnc2ccc(C(F)(F)F)cc2c1NCc1ccccc1C(F)(F)F [Compound A717, 3-Ethoxycarbonyl-4-(2-trifluoromethylbenzylamino)-6-trifluoromethylquinoline] | > 100 | > 100 |
| CCOC(=O)c1cnc2c(F)ccc(F)c2c1Sc1ccc(Cl)cc1 [Compound A732, 4-(4-Chlorophenylmercapto)-5,8-difluoro-3-ethoxycarbonylquinoline] | > 100 | – |
| CCOC(=O)c1cnc2ccc(C(F)(F)F)cc2c1Nc1cccc(C(F)(F)F)c1 [Compound A721, 3-Ethoxycarbonyl-4-(3-trifluoromethylphenylamino)-6-trifluoromethylquinoline] | > 100 | > 100 |
| CCOC(=O)c1cnc2ccc(C(F)(F)F)cc2c1Nc1cccc(Cl)c1 [Compound A728, 4-(3-Chlorophenylamino)-3-ethoxycarbonyl-6-trifluoromethylquinoline] | > 100 | > 75 |
| CCOC(=O)c1cnc2c(F)ccc(F)c2c1Sc1cccc(C(F)(F)F)c1 [Compound A713, 3-Ethoxycarbonyl-5,8-difluoro-4-(3-trifluoromethylphenylmercapto)quinoline] | > 100 | 36 |
| CCOC(=O)c1cnc2ccc(C(F)(F)F)cc2c1NCc1ccc(C(F)(F)F)cc1 [Compound A719, 3-Ethoxycarbonyl-4-(4-trifluoromethylbenzylamino)-6-trifluoromethylquinoline] | > 100 | > 100 |
| CCOC(=O)c1cnc2ccc(C(F)(F)F)cc2c1Nc1ccc(OC)c(OC)c1 [Compound A726, 3-Ethoxycarbonyl-4-(3,4-dimethoxyphenylamino)-6-trifluoromethylquinoline] | > 100 | > 100 |
| CCOC(=O)c1cnc2ccc(C(F)(F)F)cc2c1Nc1ccc(Cl)cc1 [Compound A729, 4-(4-Chlorophenylamino)-3-ethoxycarbonyl-6-trifluoromethylquinoline] | > 100 | > 100 |

Now from value to molecule:

| IC50 [1] [µM] | IC50 [2] [µM] | SMILES |
| --- | --- | --- |
| > 100 | > 100 | CCOC(=O)c1cnc2ccc(C(F)(F)F)cc2c1Nc1ccc(C#N)cc1 [Compound A725, 4-(4-Cyanophenylamino)-3-ethoxycarbonyl-6-trifluoromethylquinoline] |
| > 100 | > 10 | CCOC(=O)c1cnc2ccc(C(F)(F)F)cc2c1Nc1ccccc1C#N [Compound A723, 4-(2-Cyanophenylamino)-3-ethoxycarbonyl-6-trifluoromethylquinoline] |
| > 50 | – | CCOC(=O)c1cnc2c(F)cc(F)cc2c1Sc1ccc(Cl)cc1 [Compound A730, 4-(4-Chlorophenylmercapto)-6,8-difluoro-3-ethoxycarbonylquinoline] |
| > 100 | > 50 | CCOC(=O)c1cnc2ccc(C(F)(F)F)cc2c1NCc1cccc(C(F)(F)F)c1 [Compound A718, 3-Ethoxycarbonyl-4-(3-trifluoromethylbenzylamino)-6-trifluoromethylquinoline] |
| > 100 | > 100 | CCOC(=O)c1cnc2ccc(C(F)(F)F)cc2c1Nc1ccc(C(F)(F)F)cc1 [Compound A722, 3-Ethoxycarbonyl-4-(4-trifluoromethylphenylamino)-6-trifluoromethylquinoline] |
| > 100 | > 10 | CCOC(=O)c1cnc2ccc(C(F)(F)F)cc2c1Nc1ccc(Br)cc1 [Compound A727, 4-(4-Bromophenylamino)-3-ethoxycarbonyl-6-trifluoromethylquinoline] |
| > 100 | > 100 | CCOC(=O)c1cnc2ccc(C(F)(F)F)cc2c1Nc1cccc(Br)c1 [Compound A716, 4-(3-Bromophenylamino)-3-ethoxycarbonyl-6-trifluoromethylquinoline] |
| > 50 | – | CCOC(=O)c1cnc2cc(Cl)c(F)cc2c1Sc1ccc(Cl)cc1 [Compound A731, 7-Chloro-4-(4-chlorophenylmercapto)-6-fluoro-3-ethoxycarbonylquinoline] |
